In patent US8034767B2, “Method for producing purine nucleosides and nucleotides by fermentation using a bacterium belonging to the genus Escherichia or Bacillus” (priority 2006, dated 2011):

Legend:
[1] = tested on: E. coli strain TG1; assay: MIC of purine base analogues on M9 glucose minimal agar plates, parental strain; type: cell-based; details: Escherichia coli, 10^5 to 10^6 cells spotted, growth after 44 h at 37° C.
Experimental: (§1) The minimal inhibitory concentrations (MIC) of purine base analogues for the strain TG1::PnlpD-yeaS and the parental strain TG1 were determined on M9 glucose minimal agar plates containing graded concentrations of inhibitors. The plates were spotted with 10^5 to 10^6 cells from an overnight culture grown in a minimal medium. The growth was estimated after 44 h incubation at 37° C.

[2] = tested on: E. coli strain TG1::PnlpD-yeaS; assay: MIC of purine base analogues on M9 glucose minimal agar plates, yeaS-overexpressing strain; type: cell-based; details: Escherichia coli, 44 h, read-out: MIC for E. coli strain TG1::PnlpD-yeaS
Experimental: as §1

| Structure (SMILES) | MIC [1] [µg/mL] | MIC [2] [µg/mL] |
| --- | --- | --- |
| Nc1nc(N)c2[nH]cnc2n1 [2,6-diaminopurine] | 200 | 600 |
| Sc1ncnc2nc[nH]c12 [6-mercaptopurine] | 50 | 150 |
| Nc1nc2nc[nH]c2c(=S)[nH]1 [6-thioguanine] | 30 | 450 |
| Nc1ncnc2nn[nH]c12 [8-azaadenine] | 100 | 250 |
